Laboratory results reported in paper PMC12154458, “High-Throughput Screens of Repurposing Hub and DOS Chemical Libraries Reveal Compounds with Novel and Potent Inhibitory Activity Against the Essential Non-Neuronal Acetylcholinesterase of Schistosoma mansoni (SmTAChE)” (International Journal of Molecular Sciences, 2025).
Like-named read-outs stand apart in the source and are kept apart here.

What was measured:
rSmTAChE [1] = target: T1, rSmTAChE (Schistosoma mansoni, UniProt A0A3Q0KMM5); assay: biochemical; conditions: for inhibition at 10 µM: read-out: HTS/rSmTAChE Inhibition (Ave, %)
rSmTAChE [2] = target: T1, rSmTAChE; type: biochemical
[3] = target: recombinant human acetylcholinesterase, rHsAChE (Homo sapiens, UniProt P22303); assay: biochemical
[4] = read-out: qAC50 (IC50), rSmTAChE
[5] = read-out: qAC50 (IC50), rHsAChE
[6] = dose response analysis of Drug Repurposing Hub hits against rHsAChE
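Throughout, for Inhibition (%) (Average): mostly 20 µM final but a few compounds at 5 or 10 µM.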
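Throughout, for Inhibition (%) Replicate A: mostly 20 µM final but a few compounds at 5 or 10 µM.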
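Throughout, for Inhibition (%) Replicate B: mostly 20 µM final but a few compounds at 5 or 10 µM.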

T1 sequence (A0A3Q0KMM5 27-661 limits assumed): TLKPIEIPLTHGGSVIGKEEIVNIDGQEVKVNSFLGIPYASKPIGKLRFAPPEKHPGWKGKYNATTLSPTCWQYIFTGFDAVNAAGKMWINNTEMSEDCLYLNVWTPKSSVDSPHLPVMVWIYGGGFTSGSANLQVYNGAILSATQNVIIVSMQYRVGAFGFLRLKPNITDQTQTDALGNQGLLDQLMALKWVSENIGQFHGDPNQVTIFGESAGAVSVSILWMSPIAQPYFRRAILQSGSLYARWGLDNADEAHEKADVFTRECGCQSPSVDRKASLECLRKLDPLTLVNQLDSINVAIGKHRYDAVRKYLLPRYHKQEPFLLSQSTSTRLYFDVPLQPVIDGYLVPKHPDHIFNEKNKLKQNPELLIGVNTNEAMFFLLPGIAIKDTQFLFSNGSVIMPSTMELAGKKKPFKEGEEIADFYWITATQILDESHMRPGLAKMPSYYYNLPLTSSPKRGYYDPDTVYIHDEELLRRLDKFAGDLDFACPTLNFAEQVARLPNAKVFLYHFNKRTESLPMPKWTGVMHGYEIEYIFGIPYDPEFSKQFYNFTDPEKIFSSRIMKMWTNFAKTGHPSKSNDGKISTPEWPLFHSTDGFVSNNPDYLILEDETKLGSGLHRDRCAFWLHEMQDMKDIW
Sequence of recombinant human acetylcholinesterase, rHsAChE (P22303 32-614): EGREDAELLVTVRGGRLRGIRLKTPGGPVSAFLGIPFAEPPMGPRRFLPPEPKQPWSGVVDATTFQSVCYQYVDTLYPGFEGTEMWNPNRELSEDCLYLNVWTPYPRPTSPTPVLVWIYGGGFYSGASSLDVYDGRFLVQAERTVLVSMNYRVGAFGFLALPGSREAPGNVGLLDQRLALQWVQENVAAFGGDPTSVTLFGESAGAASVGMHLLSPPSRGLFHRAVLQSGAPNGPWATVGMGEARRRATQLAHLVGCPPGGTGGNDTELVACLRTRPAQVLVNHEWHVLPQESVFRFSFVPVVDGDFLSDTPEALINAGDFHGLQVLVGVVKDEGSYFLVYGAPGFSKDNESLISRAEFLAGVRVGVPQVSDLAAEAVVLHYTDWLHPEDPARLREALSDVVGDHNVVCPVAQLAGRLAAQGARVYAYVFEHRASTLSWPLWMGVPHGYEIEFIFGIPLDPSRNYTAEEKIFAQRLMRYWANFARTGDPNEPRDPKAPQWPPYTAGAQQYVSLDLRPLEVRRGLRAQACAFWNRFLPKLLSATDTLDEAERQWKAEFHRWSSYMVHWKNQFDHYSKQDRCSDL

Cc1c(C(=O)NN2CCCCC2)nn(-c2ccc(Cl)cc2Cl)c1-c1ccc(Cl)cc1 [BRD-K13296708-001-05-8]
Inhibition (%) (Average) (rSmTAChE [1]): 75.13% | Inhibition (%) Replicate A (rSmTAChE [1]): 74.54% | Inhibition (%) Replicate B (rSmTAChE [1]): 75.71% | Data Mode (curve class), rSmTAChE (rSmTAChE [2]): decreasing (weakly active) | IC50 (rSmTAChE [2]; [4]): > 38 µM | Data Mode (curve class), rHsAChE [3]: inactive

O=C(NCCCCN1CCN(c2cccc(Cl)c2Cl)CC1)c1ccc2c(c1)Cc1ccccc1-2 [BRD-K05181084-003-04-5]
Inhibition (%) (Average) (rSmTAChE [1]): 62.08% | Inhibition (%) Replicate A (rSmTAChE [1]): 63.93% | Inhibition (%) Replicate B (rSmTAChE [1]): 60.23% | Data Mode (curve class), rSmTAChE (rSmTAChE [2]): inactive | Data Mode (curve class), rHsAChE [3]: inactive

O=C(C[C@@H]1C[C@@H]2c3cc(NC(=O)NC4CCCC4)ccc3O[C@@H]2[C@H](CO)O1)NCc1ccccc1F [BRD-K14652476-001-01-0]
Inhibition (%) (Average) (rSmTAChE [1]): 84.81% | Inhibition (%) Replicate A (rSmTAChE [1]): 85.09% | Inhibition (%) Replicate B (rSmTAChE [1]): 84.52% | rSmTAChE Data Mode (rSmTAChE [2]): inactive | rHsAChE Data Mode [3]: inactive

COc1ccccc1-c1cccc(-c2nc(C(=O)NCc3ccncc3)cc3c2[C@@H](CCO)N([S@+]([O-])C(C)(C)C)C3)c1 [BRD-K32310489-001-03-4]
Inhibition (%) (Average) (rSmTAChE [1]): 64.60% | Inhibition (%) Replicate A (rSmTAChE [1]): 65.31% | Inhibition (%) Replicate B (rSmTAChE [1]): 63.89% | rSmTAChE Data Mode (rSmTAChE [2]): decreasing (weakly active) | rHsAChE Data Mode [3]: inactive

COc1ccc(NC(=O)Nc2ccc3c(c2)[C@@H]2C[C@H](CC(=O)NCc4ccccn4)O[C@@H](CO)[C@@H]2O3)cc1 [BRD-K62846431-001-01-3]
Inhibition (%) (Average) (rSmTAChE [1]): 77.92% | Inhibition (%) Replicate A (rSmTAChE [1]): 78.02% | Inhibition (%) Replicate B (rSmTAChE [1]): 77.82% | rSmTAChE Data Mode (rSmTAChE [2]): decreasing (weakly active) | rHsAChE Data Mode [3]: decreasing (weakly active)

CCCN1C[C@H](CSC)C[C@@H]2c3cccc4[nH]cc(c34)C[C@H]21 [BRD-K60770992-066-25-0]
Inhibition (%) (Average) (rSmTAChE [1]): 71.65% | Inhibition (%) Replicate A (rSmTAChE [1]): 73.49% | Inhibition (%) Replicate B (rSmTAChE [1]): 69.82% | Data Mode (curve class), rSmTAChE (rSmTAChE [2]): decreasing (weakly active) | IC50 (rSmTAChE [2]; [4]): > 38 µM | Data Mode (curve class), rHsAChE [3]: decreasing | IC50 [3, 5]: 29.7 µM

CCCCCCCCCCCC1=C(O)C(=O)C=C(O)C1=O [Embelin, reference compound]
inhibition at 10 µM (rSmTAChE [1]): 88.7% | Data Mode (curve class), rSmTAChE (rSmTAChE [2]): decreasing | SI (Hs/Sm) (rSmTAChE [2]): 1.44 | fold greater potency/selectivity for SmTAChE vs. HsAChE (Selectivity Index) (rSmTAChE [2]): 1.4 fold | IC50 ([3]; IC50 (µM) rHsAChE): 1.8 µM | Data Mode (curve class), rHsAChE [3, 6]: decreasing

CCN(c1ccccc1)c1cc(=NC)n(C)c(C)n1 [ZD-7288, 4-ethylphenylamino-1,2-dimethyl-6-methylaminopyrimidinium chloride, reference compound]
inhibition at 10 µM (rSmTAChE [1]): 75% | Data Mode (curve class), rSmTAChE (rSmTAChE [2]): decreasing | SI (Hs/Sm) (rSmTAChE [2]): 46.87 | fold greater potency/selectivity for SmTAChE vs. HsAChE (Selectivity Index) (rSmTAChE [2]): ~50 fold | IC50 ([3]; Table 1, Inactive = inactive at the maximum tested concentration (40 µM), read-out: IC50 (µM) rHsAChE): > 19.5 µM | Data Mode (curve class), rHsAChE [3, 6]: decreasing (weakly active) | IC50 ([3]; read-out: IC50 for rHsAChE): ~20 µM

COC(=O)CCSCc1ccc(-c2onc(C)c2NC(=O)OC(C)c2ccccc2Cl)cc1 (centres unmarked) [BRD-A94323479-001-02-8]
Inhibition (%) (Average) (rSmTAChE [1]): 67.17% | Inhibition (%) Replicate A (rSmTAChE [1]): 60.59% | Inhibition (%) Replicate B (rSmTAChE [1]): 73.75% | Data Mode (curve class), rSmTAChE (rSmTAChE [2]): inactive | Data Mode (curve class), rHsAChE [3]: decreasing (weakly active) | IC50 [3, 5]: > 38 µM

CC(C)=CCC/C(C)=C/CC/C(C)=C/CSc1ccccc1C(=O)O [BRD-K98453471-001-01-7]
Inhibition (%) (Average) (rSmTAChE [1]): 76.52% | Inhibition (%) Replicate A (rSmTAChE [1]): 77.70% | Inhibition (%) Replicate B (rSmTAChE [1]): 75.33% | Data Mode (curve class), rSmTAChE (rSmTAChE [2]): decreasing | IC50 (rSmTAChE [2]; [4]): 11.6 µM | Data Mode (curve class), rHsAChE [3]: decreasing | IC50 [3, 5]: 13.7 µM

C[C@@H]1C[C@H]2[C@@H]3CCC4=CC(=O)C=C[C@]4(C)[C@@]3(Cl)[C@@H](O)C[C@]2(C)[C@@]1(OC(=O)c1ccco1)C(=O)CCl [BRD-K60640630-001-11-0]
Inhibition (%) (Average) (rSmTAChE [1]): 71.97% | Inhibition (%) Replicate A (rSmTAChE [1]): 69.48% | Inhibition (%) Replicate B (rSmTAChE [1]): 74.46% | Data Mode (curve class), rSmTAChE (rSmTAChE [2]): decreasing (weakly active) | IC50 (rSmTAChE [2]; [4]): > 38 µM | Data Mode (curve class), rHsAChE [3]: inactive

CCc1c(C(=O)NCCc2ccc(N3CCCCC3)cc2)[nH]c2ccc(Cl)cc12 [BRD-K57597776-001-01-2]
Inhibition (%) (Average) (rSmTAChE [1]): 61.28% | Inhibition (%) Replicate A (rSmTAChE [1]): 60.33% | Inhibition (%) Replicate B (rSmTAChE [1]): 62.24% | Data Mode (curve class), rSmTAChE (rSmTAChE [2]): inactive | Data Mode (curve class), rHsAChE [3]: inactive

CCOC(=O)C1=C(C)NC(C)=C(C(=O)OCC)C1c1ccccc1/C=C/C(=O)OC(C)(C)C [BRD-K43586850-001-02-9]
Inhibition (%) (Average) (rSmTAChE [1]): 95.79% | Inhibition (%) Replicate A (rSmTAChE [1]): 92.71% | Inhibition (%) Replicate B (rSmTAChE [1]): 98.87% | Data Mode (curve class), rSmTAChE (rSmTAChE [2]): inactive | Data Mode (curve class), rHsAChE [3]: inactive

CSc1cc2c(cc1C(F)(F)F)N(C(=O)Nc1cccnc1)CC2 [BRD-K14807180-001-02-5]
Inhibition (%) (Average) (rSmTAChE [1]): 86.29% | Inhibition (%) Replicate A (rSmTAChE [1]): 87.94% | Inhibition (%) Replicate B (rSmTAChE [1]): 84.63% | Data Mode (curve class), rSmTAChE (rSmTAChE [2]): inactive | Data Mode (curve class), rHsAChE [3]: inactive

CCCCCCCCCCCCc1ccc(S(=O)(=O)Nc2nncs2)cc1 [BRD-K59745944-001-04-6]
Inhibition (%) (Average) (rSmTAChE [1]): 78.08% | Inhibition (%) Replicate A (rSmTAChE [1]): 80.43% | Inhibition (%) Replicate B (rSmTAChE [1]): 75.72% | Data Mode (curve class), rSmTAChE (rSmTAChE [2]): decreasing | IC50 (rSmTAChE [2]; [4]): 1.86 µM | Data Mode (curve class), rHsAChE [3]: decreasing | IC50 [3, 5]: 1.16 µM

C[C@H](NC(=O)C(C)(C)Oc1ccc(C(F)(F)F)cn1)[C@@H](Cc1ccc(Cl)cc1)c1cccc(C#N)c1 [BRD-K35169477-001-01-9]
Inhibition (%) (Average) (rSmTAChE [1]): 62.68% | Inhibition (%) Replicate A (rSmTAChE [1]): 60.97% | Inhibition (%) Replicate B (rSmTAChE [1]): 64.40% | Data Mode (curve class), rSmTAChE (rSmTAChE [2]): inactive | Data Mode (curve class), rHsAChE [3]: decreasing (weakly active) | IC50 [3, 5]: > 13.5 µM

CCCCc1oc2ccc(NS(C)(=O)=O)cc2c1C(=O)c1ccc(OCCCN(CCCC)CCCC)cc1 [BRD-K05524748-003-04-4]
Inhibition (%) (Average) (rSmTAChE [1]): 75.77% | Inhibition (%) Replicate A (rSmTAChE [1]): 74.52% | Inhibition (%) Replicate B (rSmTAChE [1]): 77.02% | Data Mode (curve class), rSmTAChE (rSmTAChE [2]): decreasing (weakly active) | IC50 (rSmTAChE [2]; [4]): > 38 µM | Data Mode (curve class), rHsAChE [3]: decreasing (weakly active) | IC50 [3, 5]: > 38 µM

CC(C)(C)c1ccc(CN2CCN(C(c3ccccc3)c3ccc(Cl)cc3)CC2)cc1 (centres unmarked) [BRD-A91444184-300-01-9]
Inhibition (%) (Average) (rSmTAChE [1]): 84.37% | Inhibition (%) Replicate A (rSmTAChE [1]): 84.75% | Inhibition (%) Replicate B (rSmTAChE [1]): 83.99% | Data Mode (curve class), rSmTAChE (rSmTAChE [2]): inactive | Data Mode (curve class), rHsAChE [3]: inactive

C[C@]12CC[C@@H]3c4ccc(O)cc4C[C@@H](CCCCCCCCC[S+]([O-])CCCC(F)(F)C(F)(F)F)[C@H]3[C@@H]1CC[C@@H]2O (some centres unmarked) [BRD-A85667082-001-11-9]
Inhibition (%) (Average) (rSmTAChE [1]): 64.36% | Inhibition (%) Replicate A (rSmTAChE [1]): 64.01% | Inhibition (%) Replicate B (rSmTAChE [1]): 64.71% | Data Mode (curve class), rSmTAChE (rSmTAChE [2]): inactive | Data Mode (curve class), rHsAChE [3]: decreasing (weakly active) | IC50 [3, 5]: > 13.5 µM

COc1ccc(/C=C/CCCCOc2ccc(C(=O)c3cccc(C(=O)O)c3)cc2CCC(=O)O)cc1 [LY223982, reference compound]
Inhibition (%) Replicate A (rSmTAChE [1]): 83.69% | Inhibition (%) Replicate B (rSmTAChE [1]): 77.36% | rSmTAChE HTS Inhibition (Ave, %) (rSmTAChE [1]; 20 µM): 80.52% | Data Mode (curve class), rSmTAChE (rSmTAChE [2]): decreasing | IC50 (rSmTAChE [2]; read-out: IC50 (µM) rSmTAChE): 15.2 µM | Data Mode (curve class), rHsAChE [3]: decreasing | SI (Sm/Hs) [3]: 2.1 | IC50 ([3]; read-out: IC50 (µM) rHsAChE): 7.22 µM

N.N.[Cl][Pt][Cl] [Cisplatin, reference compound]
Inhibition (%) (Average) (rSmTAChE [1]): 89.23% | Inhibition (%) Replicate A (rSmTAChE [1]): 89.47% | Inhibition (%) Replicate B (rSmTAChE [1]): 88.99% | HTS/rSmTAChE Inhibition (Ave, %) (rSmTAChE [1]; 20 µM): 89.23% | Data Mode (curve class), rSmTAChE (rSmTAChE [2]): decreasing | SI (Hs/Sm) (rSmTAChE [2]): 9.97 | fold greater potency/selectivity for SmTAChE vs. HsAChE (Selectivity Index) (rSmTAChE [2]): about 10 fold | IC50 (rSmTAChE [2]; read-out: IC50 (µM) rSmTAChE): 3.81 µM | Data Mode (curve class), rHsAChE [3]: decreasing (weakly active)
